In patent publication US20210332024A1, “MODULATORS OF PIN1 ACTIVITY AND USES THEREOF” (Yeda Research and Development Co. Ltd., priority 2019, published 2021):

Tests used:
catalytic domain of Pin1 = target: T1, catalytic domain of Pin1 (Homo sapiens, UniProt Q13526); experiment: Intact protein LC/MS labeling of Pin1; assay type: binding
T1 construct: The purified catalytic domain of Pin1 was incubated with the fragment library
Protocol: 993 compounds were transferred to a 384-well plate working copy by combining 0.5 μl of 20 mM stock solution of four or five compounds per well. The catalytic domain of Pin1 (2 μM) in 20 mM Tris, 75 mM NaCl, pH 7.5 was incubated with 200 μM for each compound and moderately shaken for 24 hours at 4° C. The reaction was stopped by the addition of formic acid to 0.4% (v/v) final concentration.
Liquid chromatography/mass spectroscopy runs were performed on an Acquity™ UPLC® H-class system (Waters) in positive ion mode using electrospray ionization (ESI). UPLC separation was performed on a C4 column (300 Å, 1.7 μM, […]). The column was held at 40° C., and the autosampler at 10° C. Mobile solution A was 0.1% formic acid in water and mobile phase B was 0.1% formic acid in acetonitrile. Run flow was 0.4 ml/minute; and a gradient of 20% B for 2 minutes, increasing linearly to 60% B for 3 minutes, holding at 60% B for 1.5 minutes, changing to 0% B in 0.1 minute and holding at 0% for 1.4 minutes, was used. Desolvation temperature was 500° C. with a flow rate of 1000 liters/hour. The capillary voltage was 0.69 kV and cone voltage 46 V. Raw data was processed using OpenLynx™ software and deconvoluted using the MaxEnt tool. Labeling assignment was performed as described in Resnick et al. [J Am Chem Soc 2019, 141:8951-8968].
For the screening 2 μl of each of the 448 click products as 50 μM DMSO stocks were transferred into a 384-well plate working plate. 48 μl of catalytic domain of Pin1 (2 μM) in 20 mM Tris (pH 7.5) with 75 mM NaCl were added and moderately shaken and incubated for 15 minutes at room temperature. The reaction was stopped by the addition of formic acid to 0.4% (v/v) final concentration (20 μl). The mixtures were analyzed by liquid chromatography/mass spectroscopy analogously to the electrophile library incubations described herein. Hits were retrospectively analyzed by liquid chromatography/mass spectroscopy (LC-MS) to ensure reaction completion.
For each measured well, processed peaks were searched to match the mass of unlabeled protein or common small adducts of the unlabeled protein, which were found in the control sample or labeled protein. Labeling percentage for a compound was determined as the labeling of a specific compound divided by the overall detected protein species. Peaks whose mass could not be assigned were discarded from the overall labeling calculation. Data was analyzed using a python script for processing the MaxEnt-deconvoluted spectra. Peaks were normalized from ion counts to percentages, where the highest peak is defined as 100%. The unlabeled protein mass is deduced from a reference well that contains just the protein.
The purified catalytic domain of Pin1 was incubated with the fragment library (2 μM protein, 200 μM compound; 24 hours at 4° C.), followed by intact protein liquid chromatography/mass-spectrometry (LC/MS) to identify and quantify compound labeling. FIG. 1 depicts an example of a compound identified in this manner.
Based on the docking predictions, a total of 26 compounds that featured a range of small or bulky aliphatic, arylic, biphenylic or heterocyclic side-chains (structures depicted in FIG. 5), were synthesized or purchased. In order to identify potent binders, the irreversible labeling efficiency of these second-generation compounds was assessed alongside the original screening hits under more stringent conditions, with a 1:1 ratio of protein to compound (2 μM compound; 1 hour at room temperature).
For further optimization of the lipophilic moiety, an alkyne side chain-bearing analog was prepared, which was derivatized with 448 different azides using copper-catalyzed azide-alkyne cycloaddition (CuAAC).

Pin1 in IMR32 cells = target: T2, Pin1 in IMR32 cells (Homo sapiens, UniProt Q13526); experiment: Live cell competition assay with Pin1-3-DTB pull-down, IMR32 cells; assay type: cell-based; settings: IMR32 cells
T2 construct: endogenous in cells; host or cells: IMR32
Protocol: The indicated cells were treated with increasing concentrations of either DMSO, Pin1-3, or Pin1-3-AcA for 5 hours. Cells were harvested by scraping and washed twice with PBS before lysis with 50 mM HEPES (pH 7.4), 1 mM EDTA, 10% glycerol, 1 mM TCEP, 150 mM NaCl, 1 mM EDTA, 0.5% NP-40, and protease inhibitor tablet (Roche cat. #4693159001). After clarifying (14,000 rpm for 15 minutes), samples were treated with the indicated concentrations of Pin1-3-DTB at 4° C. for 1 hour. Lysates were then incubated with streptavidin agarose resin (Thermo Scientific, cat. #20349) for 1.5 hour at 4° C. Beads were washed four times with 500 μl of washing buffer (50 mM HEPES (pH 7.5), 10 mM NaCl, 1 mM EDTA, 10% glycerol), then pelleted by centrifugation and dried. The beads were boiled for 5 minutes at 95° C. in 2×LDS+10% β-mercaptoethanol. Proteins of interest were then assessed via Western blotting using the bolt system (Life Technologies).
The indicated cells were plated in 10 cm plates with 2.5 million cells per plate in 6 ml of medium. The day after plating, cells were treated with the indicated concentrations of candidate inhibitor for the indicated time points. The cells were then washed two times with cold phosphate buffer saline (1 ml per 10 cm plate) and collected by scraping with a cell scraper. […]

[1] = test system: transplanted EGFP-labeled neuroblastoma cells; experiment: Primary tumor derived allograft (PDA) neuroblastoma model in zebrafish embryos; assay type: in vivo; settings: 100 μM in the fish water, five days
Protocol: The anti-tumor activity of Pin1-3 was then assessed on the maintenance of fully transformed neuroblastoma cells in vivo in primary tumor derived allograft (PDA) models constructed in transplanted zebrafish embryos. EGFP-labeled neuroblastoma cells were dissected from 4-month-old Tg(dβh:MYCN;dβh:EGFP) donor zebrafish, disaggregated, counted and 200-400 GFP-labeled tumor cells were injected intravenously into the Duct of Cuvier (common cardinal vein) of 2 dpf zebrafish embryos [He et al., J Pathol 2012, 227:431-445]. One day after injection, 100 μM Pin1-3 or the DMSO control was added to the fish water containing embryos bearing the transplanted EGFP-labeled neuroblastoma cells. Five days later, the area of the EGFP-labeled tumor mass in treated embryos was quantified.

[2] = test system: Pancreatic ductal adenocarcinoma (PDAC) cells; experiment: PDAC cell growth; assay type: cell-based, human; settings: treated for 3 days
Protocol: Pancreatic ductal adenocarcinoma (PDAC) cells (derived from a human patient) were treated with Pin1-3 for 3 days. PDAC organoids were treated with Pin1-3 for 7 days (day 7 to day 14).

T1 sequence (Q13526 52-163 limits assumed): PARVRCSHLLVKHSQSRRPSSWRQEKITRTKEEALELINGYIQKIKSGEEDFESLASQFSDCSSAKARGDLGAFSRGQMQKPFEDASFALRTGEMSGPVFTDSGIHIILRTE
T2 sequence (Q13526 whole entry): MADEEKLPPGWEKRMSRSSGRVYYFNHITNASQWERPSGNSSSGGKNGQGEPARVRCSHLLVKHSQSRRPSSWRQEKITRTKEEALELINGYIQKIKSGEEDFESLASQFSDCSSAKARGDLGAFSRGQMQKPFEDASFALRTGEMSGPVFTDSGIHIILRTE

CC(C)(C)CN(C(=O)CCl)C1CCS(=O)(=O)C1 (centres unmarked) [Pin1-3, 2-chloro-N-(sulfolan-3-yl)-N-neopentylacetamide]
Labeling [%] (catalytic domain of Pin1; 2 μM Pin1 with 2 μM test compound for 15 minutes at room temperature): 10%
Labeling [%] (catalytic domain of Pin1; 2 μM Pin1 with 2 μM test compound for 1 hour at room temperature): 48%
Concentration of full engagement of Pin1 (Pin1 in IMR32 cells): 1 µM
EGFP-labeled tumor mass [1]: tumor masses decreased in size
PDAC cell growth [2]: inhibited tumor growth of PDAC cells in a dose-dependent manner
